Measurements from EP1614683B1, “Indazole compounds and pharmaceutical compositions for inhibiting protein kinases, and methods for their use” (priority 1999, dated 2001).
Like-named read-outs stand apart in the source and are kept apart here.

[1] = mouse, in vivo, ip, 25 mg/kg, pH 2.3
[2] = mouse, in vivo, po, 50 mg/kg, pH 2.3
[3] = mouse, in vivo, po, 25 mg/kg, pH 2.3
[4] = mouse, in vivo, po, 25 mg/kg, 7 h, pH 2.3
[5] = mouse, in vivo, po, 50 mg/kg, 7 h, pH 2.3
[6] = mouse, in vivo, ip, 25 mg/kg, 7 h, pH 2.3
[7] = mouse, in vivo, po, 10 mg/kg, pH 2.3
[8] = PO, 25 mg/kg, vehicle PEG400:H2O pH 2.3 30:70

| SMILES | AUCleast [1] | T1/2 [1] | AUCleast [2] | T1/2 [2] | AUCleast [3] | T1/2 [3] | also measured |
| --- | --- | --- | --- | --- | --- | --- | --- |
| O=C(Nc1cccc(C(=O)c2ccc3c(/C=C/c4ccccn4)n[nH]c3c2)c1)c1ccccc1 [42 (a)] | 19899 ng·h/mL | 5.0 h | 8384 ng·h/mL | 2.0 h | – | – | – |
| Cc1cc(C(=O)Nc2cc(Nc3ccc4c(/C=C/c5ccccn5)n[nH]c4c3)ccc2C)n(C)n1 [49 (b)] | – | – | – | – | 33750 ng·h/mL | – | – |
| Cn1ccnc1/C=N/NC(=O)c1ccccc1Sc1ccc2c(/C=C/c3ccccn3)n[nH]c2c1 [36 (a)] | – | – | – | – | 605 ng·h/mL | 1.5 h | – |
| O=C(NCc1ccncc1)c1ccccc1Sc1ccc2c(/C=C/c3ccccn3)n[nH]c2c1 [35 (p)] | – | – | – | – | 1435 ng·h/mL | 1.3 h | Cmin (7 hr conc.) [4]: 5 ng/mL |
| O=C(Nc1cccc(C(=O)c2ccc3c(/C=C/c4ccccn4)n[nH]c3c2)c1)c1ccncc1 [41 (b)] | > 5868 ng·h/mL | 4.7 h | 759 ng·h/mL | 1.1 h | – | – | Cmin (7 hr conc.) [5]: 6 ng/mL |
| Cn1cccc1C(=O)NNC(=O)c1ccccc1Sc1ccc2c(/C=C/c3ccccn3)n[nH]c2c1 [35 (e)] | 2409 ng·h/mL | 1.8 h | 1503 ng·h/mL | 0.9 h | – | – | Cmin (7 hr conc.) [5]: 6 ng/mL |
| CCn1nc(C)cc1C(=O)Nc1cc(Nc2ccc3c(/C=C/c4ccccn4)n[nH]c3c2)c(F)cc1C.Cl [59 (c)] | – | – | – | – | – | – | AUCleast (mouse, in vivo, po, 25 mg/kg): 327135 ng·h/mL |
| C=CCONC(=O)c1ccccc1Sc1ccc2c(/C=C/c3ccccn3)n[nH]c2c1 [35 (j)] | 9531 ng·h/mL | 1.3 h | 1328 ng·h/mL | 4.5 h | – | – | Cmin (7 hr conc.) [5]: 5 ng/mL |
| O=C(NCCc1cccs1)c1ccccc1Sc1ccc2c(/C=C/c3ccccn3)n[nH]c2c1 [35 (hh)] | – | – | – | – | 292 ng·h/mL | 1.7 h | Cmin (7 hr conc.) [4]: 5 ng/mL |
| CCONC(=O)c1ccccc1Sc1ccc2c(/C=C/c3ccccn3)n[nH]c2c1 [35 (dd)] | > 23046 ng·h/mL | 4.1 h | – | – | > 6521 ng·h/mL | 1.4 h | AUCleast (mouse, in vivo, po, 25 mg/kg): 1360 ng·h/mL; T1/2 (mouse, in vivo, po, 25 mg/kg): 2.0 h |
| COc1cccc(CNC(=O)c2ccccc2Sc2ccc3c(/C=C/c4ccccn4)n[nH]c3c2)c1 [35 (aa)] | – | – | – | – | 4036 ng·h/mL | 2.1 h | – |
| C#CCNC(=O)c1ccccc1Sc1ccc2c(/C=C/c3ccccn3)n[nH]c2c1 [35 (cc)] | 2223 ng·h/mL | 1.4 h | 1718 ng·h/mL | 0.9 h | – | – | Cmin (7 hr conc.) [6]: 6 ng/mL; Cmin (7 hr conc.) [5]: 5 ng/mL |
| O=C(NC1CCC1)c1ccccc1Sc1ccc2c(/C=C/c3ccccn3)n[nH]c2c1 [35 (c)] | 9408 ng·h/mL | 3.2 h | 4744 ng·h/mL | 4.9 h | – | – | – |
| Cc1cccc(C(=O)Nc2cccc(Oc3ccc4c(/C=C/c5ccccc5)n[nH]c4c3)c2)c1 [5 (b)] | – | – | – | – | – | – | AUCleast [7]: 61 ng·h/mL; T1/2 [7]: 3.1 h |
| C=CCn1nc(C)cc1C(=O)Nc1cc(C(=O)c2ccc3c(/C=C/c4ccccn4)n[nH]c3c2)ccc1C [41 (ff)] | – | – | – | – | 9176 ng·h/mL | 2.0 h | – |
| CC(C)NC(=O)c1ccccc1Sc1ccc2c(/C=C/c3ccccn3)n[nH]c2c1 [35 (b)] | 2840 ng·h/mL | 0.8 h | 4048 ng·h/mL | 0.8 h | – | – | – |
| CCOCCNC(=O)c1ccccc1Sc1ccc2c(/C=C/c3ccccn3)n[nH]c2c1 [35 (z)] | 837 ng·h/mL | 1.8 h | 1001 ng·h/mL | 1.6 h | – | – | – |
| O=C(NNC(=O)c1ccccc1Sc1ccc2c(/C=C/c3ccccn3)n[nH]c2c1)c1cccs1 [35 (m)] | 226 ng·h/mL | 4.0 h | – | – | 10 ng·h/mL | – | Cmin (7 hr conc.) (mouse, in vivo, po, 25 mg/kg, 420 min, pH 2.3): 0 ng/mL |
| CCCONC(=O)c1ccccc1Sc1ccc2c(/C=C/c3ccccn3)n[nH]c2c1 [35 (t)] | – | – | – | – | 3199 ng·h/mL | 1.1 h | – |
| CCNC(=O)c1ccccc1Sc1ccc2c(/C=C/c3ccccn3)n[nH]c2c1 [35 (x)] | 951 ng·h/mL | 3.2 h | 3516 ng·h/mL | 0.9 h | – | – | – |
| COc1ccc(CNC(=O)c2ccccc2Sc2ccc3c(/C=C/c4ccccn4)n[nH]c3c2)cc1 [35 (g)] | – | – | – | – | 231 ng·h/mL | 16.1 h | – |
| CCn1nc(C)cc1C(=O)Nc1cc(Nc2ccc3c(/C=C/c4ccccn4)n[nH]c3c2)c(F)cc1C [48 (a)] | 27000 ng·h/mL | – | – | – | 26636 ng·h/mL | – | – |
| CC(C)=CC(=O)Nc1cccc(C(=O)c2ccc3c(/C=C/c4ccccn4)n[nH]c3c2)c1 [41 (dd)] | – | – | – | – | 654 ng·h/mL | 0.8 h | Cmin (7 hr conc.) [4]: 1 ng/mL |

| SMILES | AUCleast [1] | T1/2 [1] | AUCleast [2] | T1/2 [2] | AUCleast [3] | T1/2 [3] | also measured |
| --- | --- | --- | --- | --- | --- | --- | --- |
| O=C(Nc1cccc(C(=O)c2ccc3c(/C=N/n4cccc4)n[nH]c3c2)c1)c1ccccc1 [45 (b)] | 11361 ng·h/mL | 2.0 h | 1636 ng·h/mL | 3.0 h | – | – | – |
| O=C(Nc1cccc(Cl)c1)c1ccccc1Sc1ccc2c(/C=C/c3ccccn3)n[nH]c2c1 [33 (d)] | 5080 ng·h/mL | 1.6 h | 4744 ng·h/mL | 0.9 h | – | – | Cmin (7 hr conc.) [5]: 8 ng/mL |
| CNC(=O)c1ccccc1Nc1ccc2c(/C=C/c3ccccn3)n[nH]c2c1 [39 (a)] | – | – | – | – | > 14848 ng·h/mL | 1.4 h | – |
| C=C(C)CNC(=O)c1ccccc1Sc1ccc2c(/C=C/c3ccccn3)n[nH]c2c1 [35 (ee)] | 546 ng·h/mL | 1.5 h | – | – | 157 ng·h/mL | 14.6 h | Cmin (7 hr conc.) [6]: 2 ng/mL; Cmin (7 hr conc.) [4]: 9 ng/mL |
| CCn1nc(C)cc1C(=O)Nc1cccc(C(=O)c2ccc3c(/C=C/c4ccccn4)n[nH]c3c2)c1.Cl [59 (a)] | – | – | – | – | – | – | AUCleast (mouse, in vivo, po, 8 mg/kg): 7707 ng·h/mL; T1/2 (mouse, in vivo, po, 8 mg/kg): 1.5 h; AUCleast (mouse, in vivo, po, 40 mg/kg): 57240 ng·h/mL; T1/2 (mouse, in vivo, po, 40 mg/kg): 2.4 h; AUCleast (mouse, in vivo, po, 200 mg/kg): 156153 ng·h/mL; T1/2 (mouse, in vivo, po, 200 mg/kg): 9.4 h |
| Cc1cc(C(=O)Nc2cc(Nc3ccc4c(/C=C/c5ccccn5)n[nH]c4c3)c(F)cc2C)n(C)n1 [48 (b)] | – | – | – | – | 2191 ng·h/mL | 4 h | – |
| CC(C)COC(=O)Nc1cccc(C(=O)c2ccc3c(/C=C/c4ccccn4)n[nH]c3c2)c1 [41 (y)] | – | – | – | – | – | – | AUCleast [8]: Blq; Cmax [8]: Blq; Cmin (7 hr conc.) [8]: blq |
| C#CCNC(=O)c1ccccc1Nc1ccc2c(/C=C/c3ccccn3)n[nH]c2c1 [39 (b)] | – | – | – | – | > 30972 ng·h/mL | 11.8 h | – |
| O=C(Nc1cccc(C(=O)c2ccc3c(-c4nc5ccccc5[nH]4)n[nH]c3c2)c1)c1ccccc1 [42 (b)] | 3207 ng·h/mL | 3.0 h | 4747 ng·h/mL | 3.0 h | – | – | – |
| Cc1cc(C(=O)Nc2cccc(C(=O)c3ccc4c(/C=C/c5ccccn5)n[nH]c4c3)c2)n(C)n1.Cl [59 (b)] | – | – | – | – | – | – | AUCleast (mouse, in vivo, po, 50 mg/kg): 276467 ng·h/mL |
| CCc1cc(C(=O)Nc2cccc(C(=O)c3ccc4c(/C=C/c5ccccn5)n[nH]c4c3)c2)n(C)n1 [41 (v)] | – | – | – | – | 10949 ng·h/mL | 4.4 h | – |
| CC(C)ONC(=O)c1ccccc1Sc1ccc2c(/C=C/c3ccccn3)n[nH]c2c1 [35 (k)] | 2640 ng·h/mL | 1.4 h | 5529 ng·h/mL | 1.4 h | – | – | – |
| O=C(Nc1cccc(C(=O)c2ccc3c(-c4nc5cccnc5[nH]4)n[nH]c3c2)c1)c1ccccc1 [42 (d)] | 1774 ng·h/mL | 1.4 h | 46 ng·h/mL | – | – | – | – |
| O=C(NCC1CC1)c1ccccc1Sc1ccc2c(/C=C/c3ccccn3)n[nH]c2c1 [35 (v)] | 4865 ng·h/mL | 0.9 h | >2946 ng·h/mL | 1.0 h | – | – | – |
| Cc1cc(C(=O)Nc2cc(Nc3ccc4c(/C=C/c5ccccn5)n[nH]c4c3)ccc2F)n(C)n1 [49 (a)] | – | – | – | – | 712 ng·h/mL | – | – |
| CC(C)ONC(=O)c1cccc(F)c1Sc1ccc2c(/C=C/c3ccccn3)n[nH]c2c1 [37 (c)] | – | – | – | – | 2419 ng·h/mL | 1.2 h | Cmin (7 hr conc.) [4]: 9 ng/mL |
| Cc1cc(C(=O)Nc2cc(Nc3ccc4c(/C=C/c5ccccn5)n[nH]c4c3)ccc2F)n(C)n1.Cl [59 (d)] | – | – | – | – | – | – | AUCleast (mouse, in vivo, po, 8 mg/kg): > 24696 ng·h/mL; AUCleast (mouse, in vivo, po, 40 mg/kg): > 32297 ng·h/mL; AUCleast (mouse, in vivo, po, 200 mg/kg): > 123206 ng·h/mL |
| O=C(NC1CC1)c1ccccc1Sc1ccc2c(/C=C/c3ccccn3)n[nH]c2c1 [33 (e)] | 14323 ng·h/mL | 1.0 h | 13290 ng·h/mL | 0.7 h | – | – | – |
| O=C(Nc1nccs1)c1ccccc1Sc1ccc2c(/C=C/c3ccccn3)n[nH]c2c1 [35 (y)] | 159 ng·h/mL | 1.2 h | 58 ng·h/mL | 1.2 h | – | – | Cmin (7 hr conc.) [6]: 2 ng/mL; Cmin (7 hr conc.) [5]: 1 ng/mL |
| Cc1cc(C(=O)Nc2cc(C(=O)c3ccc4c(/C=C/c5ccccn5)n[nH]c4c3)ccc2C)n(C(C)C)n1 [41 (kk)] | – | – | – | – | 11612 ng·h/mL | 2.0 h | – |
| Cc1cc(C(=O)Nc2cccc(C(=O)c3ccc4c(/C=C/c5ccccn5)n[nH]c4c3)c2)on1 [41 (m)] | 1864 ng·h/mL | 2.3 h | 9 ng·h/mL | – | – | – | – |
| O=C(NCc1cccc(F)c1)c1ccccc1Sc1ccc2c(/C=C/c3ccccn3)n[nH]c2c1 [35 (ff)] | > 6301 ng·h/mL | – | – | – | Blq | – | Cmin (7 hr conc.) [3]: blq |
